The source of these data is ChEMBL document CHEMBL5584298, “Discovery of Cytotoxic Nitric Oxide-Releasing Piperlongumine Derivatives Targeting Wnt/β-Catenin in Colon Cancer Cells” (J Nat Prod, 2024).

Data set [1] deals with HCT-116. The data set can be described thus: Induction of NO production in human HCT-116 cells incubated for 6 hrs by Griess reagent based assay. Type of data set: functional, cell-based. As to conditions: dose 1-10 µM. For orientation: The Griess reaction detects nitrite, a stable product of nitric oxide.
Data set [2] has as its system HCT-116. The data set can be described thus: Antiproliferative activity against human HCT-116 cells incubated for 24 to 72 hrs by MTT assay. Type of data set: functional, cell-based. To be noted: dose 0.1-100 µM, time 24-72 hrs.
In data set [3] the test system is A549. The data set can be described thus: Antiproliferative activity against human A549 cells incubated for 24 to 72 hrs by MTT assay. As to conditions: dose 0.1-100 µM, time 24-72 hrs. In kind it is functional, cell-based. Background: Tetrazolium dyes change colour on reduction, which living cells bring about.
The subject of data set [4] is A549. The data set can be described thus: Antiproliferative activity against human A549 cells incubated for 72 hrs by MTT assay. In kind it is functional, cell-based. To be noted: A549, 72 h.
Data set [5] deals with HCT-116. The data set can be described thus: Antiproliferative activity against human HCT-116 cells at 0.1 to 100 uM by MTT assay. In kind it is functional, cell-based. To be noted: dose 0.1-100 µM, time 24-72 hrs, TDE = time-dependent effect.
The subject of data set [6] is HCT-116. The data set can be described thus: Antiproliferative activity against human HCT-116 cells incubated for 24 hrs by MTT assay. In kind it is functional, cell-based. As to conditions: HCT-116, 24 h.
The subject of data set [7] is A549. The data set is described as follows: Antiproliferative activity against human A549 cells at 0.1 to 100 uM by MTT assay. Type of data set: functional, cell-based. To be noted: dose 0.1-100 µM, time 24-72 hrs, TDE = time-dependent effect.
Data set [8] concerns A549. The data set can be described thus: Antiproliferative activity against human A549 cells incubated for 24 hrs by MTT assay. In kind it is functional, cell-based. As to conditions: A549, 24 h.
In data set [9] the test system is HCT-116. The data set can be described thus: Antiproliferative activity against human HCT-116 cells incubated for 72 hrs by MTT assay. To be noted: HCT-116, 72 h. In kind it is functional, cell-based.
Data set [10] is described as follows: Selectivity index, ratio of IC50 for human CCD-841CoN cells to IC50 for human HCT-116 cells. Type of data set: toxicity. As to conditions: CCD-841CoN cells and HCT-116 cells, read-out: Ratio IC50.
For data set [11], the system named is HCT-116. The data set is described as follows: Downregulation of beta-catenin expression in human HCT-116 cells cytosol after 24 hrs by Western blotting analysis. Type of data set: functional, subcellular. As to conditions: dose 0.5-2 µM.
The subject of data set [12] is HCT-116. The data set can be described thus: Downregulation of phosphorylated GSK-3beta at Ser9 residue expression in human HCT-116 cells after 24 hrs by Western blotting analysis. Type of data set: functional, cell-based. To be noted: dose 0.5-2 µM. Background: Immunoblotting shows a protein as a band on a membrane.
The nature of data set [13]: Cytotoxicity against human CCD-841CoN cells incubated for 72 hrs by MTT assay. Type of data set: toxicity, cell-based.
Data set [14] has as its system HCT-116. The data set can be described thus: Downregulation of beta-catenin expression in human HCT-116 cells nucleus after 24 hrs by Western blotting analysis. As to conditions: dose 0.5-2 µM. Type of data set: functional, subcellular.
Data set [15] in a line: Cytotoxicity against human CCD-841CoN cells incubated for 24 hrs by MTT assay. In kind it is toxicity, cell-based.

`CCN(CC)/[N+]([O-])=N/CONC(=O)/C=C/c1cc(OC)c(OCCCCC(=O)OCO/N=[N+](\[O-])N(CC)CC)c(OC)c1`: the Activity result is “Dose-Dependent Effect” with HCT-116 [1]; “Dose-Dependent Effect” with HCT-116 [2]; “Dose-Dependent Effect” in the data set with A549 [3]; “Tde” with HCT-116 [5]; “Tde” in the data set on A549 [7]. Moreover, the IC50 in the data set on A549 [4] was found to be 3.4 µM; in the data set on HCT-116 [6], 5.4 µM; in the data set on A549 [8], 5.7 µM; with HCT-116 [9], 3.9 µM.

`COc1cc(/C=C/C(=O)N2CCC=CC2=O)cc(OC)c1OC` [PIPLARTINE]: the Activity entry in the data set with HCT-116 [2] is “Dose-Dependent Effect”; in the data set with A549 [3], “Dose-Dependent Effect”; in the data set with HCT-116 [5] it was “Tde”; in the data set on A549 [7], “Tde”. For the same compound, the IC50 was 7.2 µM in the data set with A549 [4], 13.3 µM with HCT-116 [6], 13.2 µM in the data set on A549 [8] and 8.6 µM in the data set on HCT-116 [9].

In the case of `O=c1[nH]cc(F)c(=O)[nH]1` [FLUOROURACIL], the IC50 with A549 [4] came out at 24.2 µM; with HCT-116 [6], 29.6 µM; in the data set on HCT-116 [9], 19.7 µM.

Regarding `CCN(CC)/[N+]([O-])=N/OCOC(=O)CCCCOc1c(OC)cc(/C=C/C(=O)N2CCC=C(Cl)C2=O)cc1OC`, the Activity entry in the data set with HCT-116 [1] was “Dose-Dependent Effect”; in the data set on HCT-116 [2], “Dose-Dependent Effect”; in the data set on A549 [3], “Dose-Dependent Effect”; with HCT-116 [5] it was “Tde”; with A549 [7], “Tde”; in the data set with HCT-116 [11], “Dose-Dependent Effect”. The Activity entry with HCT-116 [12] and in the data set with HCT-116 [14] was “Dose-Dependent Effect” each time. Besides, the IC50 with A549 [4] was determined as 0.6 µM; in the data set on HCT-116 [6] it was 0.9 µM; in the data set with A549 [8] it was 0.8 µM; in the data set on HCT-116 [9], 0.6 µM. Besides, the selectivity ratio in [10] was above 10. In addition, in data set [13], 6.1 µM corresponded to half-maximal inhibition (IC50 at 72 h). This compound registered an IC50 at 24 h in data set [15] of 11.3 µM.

For the compound `COc1cc(/C=C/C(=O)N2CCC=C(Cl)C2=O)cc(OC)c1OC`, the values for the 50% inhibitory concentration (IC50) in the data set with HCT-116 [6], with A549 [8] and in the data set with HCT-116 [9] were 11.4 µM, 10.2 µM and 6.2 µM, respectively.

Consider `COc1cc(/C=C/C(=O)N2CCC=C(Cl)C2=O)cc(OC)c1OCCCCC(=O)OCO/N=[N+](\[O-])N1CCOCC1`, for which the Activity result is “Dose-Dependent Effect” in the data set on HCT-116 [1]; “Dose-Dependent Effect” in the data set on HCT-116 [2]; “Dose-Dependent Effect” with A549 [3]; “Tde” in the data set with HCT-116 [5]; “Tde” with A549 [7]. For the same compound, the concentration for half-maximal inhibition (IC50) amounted to 0.7 µM in the data set with A549 [4], 1.1 µM in the data set with HCT-116 [6], 1.1 µM with A549 [8] and 0.7 µM in the data set on HCT-116 [9].

On to `COc1cc(/C=C/C(=O)NOC/N=[N+](\[O-])N2CCOCC2)cc(OC)c1OCCCCC(=O)OCO/N=[N+](\[O-])N1CCOCC1`, for which the Activity entry was “Dose-Dependent Effect” with HCT-116 [1]; “Dose-Dependent Effect” in the data set with HCT-116 [2]; “Dose-Dependent Effect” in the data set on A549 [3]; “Tde” in the data set on HCT-116 [5]; “Tde” in the data set on A549 [7]. The half-inhibitory concentration (IC50) amounted to 10.6 µM in the data set with A549 [4], 35.6 µM in the data set with HCT-116 [6], 18.4 µM in the data set on A549 [8] and 28 µM with HCT-116 [9].

On to `CCN(CC)OC(=O)CCCCOc1c(OC)cc(/C=C/C(=O)N2CCC=C(Cl)C2=O)cc1OC`, for which the 50% inhibitory concentration (IC50) in the data set with HCT-116 [6] was found to be 6.3 µM; with HCT-116 [9], 2.8 µM.

One may read the IC50 as the concentration at which inhibition is half-maximal.
